Test system: 324938-238-R-J1-PDC complex spheroids viability
Experiment: Anticancer human tumor 324938-238-R-J1-PDC patient-derived bladder carcinoma cell line growth inhibition [CLK]
Settings: for IC50: curve of first compound; for viability, T/C: stronger effect = lower value; active = viability on the fitted dose curve at most 10% of control; inactive = the rest
Outline: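 Patient-derived tumor cells grown as complex spheroids with HUVEC endothelial cells and mesenchymal stem cells, treated with drug combinations. Concentrations descend in half-log steps from near clinical Cmax, or from 10 microM if Cmax unknown.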
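Also: viability read after seven days of drug exposure.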
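For viability, T/C in this document: 100% = DMSO vehicle control wells.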

COC1C=CCC(C)C(C)S(=O)(=O)NC(=O)c2ccc3c(c2)N(CC2CCC21)CC1(CCCc2cc(Cl)ccc21)CO3 (centres undefined) + CNC(=O)c1ccc(Nc2nc(OC3CCCC3)c3c(-c4ccc5nc(C)oc5c4)c[nH]c3n2)c(OC)c1
active: viability, T/C (second compound 0.316 µM, first compound 3.16 µM) 10.7% | viability, T/C (second compound 0.316 µM, first compound 10 µM) 7.76% | viability, T/C (second compound 1 µM, first compound 3.16 µM) 11.3% | viability, T/C (second compound 1 µM, first compound 10 µM) 7.89% | viability, T/C (second compound 3.16 µM, first compound 10 µM) 8.28%
< 31.6 nM: IC50 (second compound 0.1 µM) | IC50 (second compound 0.316 µM) | IC50 (second compound 1 µM) | IC50 (second compound 3.16 µM) | IC50 (second compound 10 µM)
inactive: viability, T/C (second compound 0.0316 µM, first compound 0.0316 µM) 89.6% | viability, T/C (second compound 0.0316 µM, first compound 0.1 µM) 79.6% | viability, T/C (second compound 0.0316 µM, first compound 0.316 µM) 32.8% | viability, T/C (second compound 0.0316 µM, first compound 1 µM) 21.8% | viability, T/C (second compound 0.0316 µM, first compound 3.16 µM) 15.3% | viability, T/C (second compound 0.0316 µM, first compound 10 µM) 7.03% | viability, T/C (second compound 0.1 µM, first compound 0.0316 µM) 31.7% | viability, T/C (second compound 0.1 µM, first compound 0.1 µM) 27.9% | viability, T/C (second compound 0.1 µM, first compound 0.316 µM) 24.4% | viability, T/C (second compound 0.1 µM, first compound 1 µM) 15.4% | viability, T/C (second compound 0.1 µM, first compound 3.16 µM) 22.5% | viability, T/C (second compound 0.1 µM, first compound 10 µM) 8.36% | viability, T/C (second compound 0.316 µM, first compound 0.0316 µM) 18% | viability, T/C (second compound 0.316 µM, first compound 0.1 µM) 15.1% | viability, T/C (second compound 0.316 µM, first compound 0.316 µM) 12.9% | viability, T/C (second compound 0.316 µM, first compound 1 µM) 12.1% | viability, T/C (second compound 1 µM, first compound 0.0316 µM) 15.1% | viability, T/C (second compound 1 µM, first compound 0.1 µM) 13.3% | viability, T/C (second compound 1 µM, first compound 0.316 µM) 11.8% | viability, T/C (second compound 1 µM, first compound 1 µM) 11.2% | viability, T/C (second compound 3.16 µM, first compound 0.0316 µM) 16.1% | viability, T/C (second compound 3.16 µM, first compound 0.1 µM) 13.2% | viability, T/C (second compound 3.16 µM, first compound 0.316 µM) 13.1% | viability, T/C (second compound 3.16 µM, first compound 1 µM) 10.6% | viability, T/C (second compound 3.16 µM, first compound 3.16 µM) 11.4% | viability, T/C (second compound 10 µM, first compound 0.0316 µM) 14.7% | viability, T/C (second compound 10 µM, first compound 0.1 µM) 15% | viability, T/C (second compound 10 µM, first compound 0.316 µM) 15% | viability, T/C (second compound 10 µM, first compound 1 µM) 10.7% | viability, T/C (second compound 10 µM, first compound 3.16 µM) 11.6% | viability, T/C (second compound 10 µM, first compound 10 µM) 9.83%
210 nM: IC50 (second compound 0.0316 µM)

NC(=O)C(=Cn1cnc(-c2cc(C(F)(F)F)cc(C(F)(F)F)c2)n1)c1cncnc1 + CN1CCN(c2cc(C(=O)Nc3cc4cc(-c5cnn(C)c5)ccc4cn3)ccn2)CC1
44.9 nM: IC50 (second compound 0.0316 µM)
< 9.49 nM: IC50 (second compound 0.1 µM) | IC50 (second compound 0.316 µM) | IC50 (second compound 1 µM) | IC50 (second compound 3.16 µM) | IC50 (second compound 10 µM)
inactive: viability, T/C (second compound 0.0316 µM, first compound 0.00949 µM) 73.6% | viability, T/C (second compound 0.0316 µM, first compound 0.03 µM) 56.1% | viability, T/C (second compound 0.0316 µM, first compound 0.0949 µM) 37.3% | viability, T/C (second compound 0.0316 µM, first compound 0.3 µM) 11.8% | viability, T/C (second compound 0.1 µM, first compound 0.00949 µM) 47.5% | viability, T/C (second compound 0.1 µM, first compound 0.03 µM) 37.8% | viability, T/C (second compound 0.1 µM, first compound 0.0949 µM) 26% | viability, T/C (second compound 0.1 µM, first compound 0.3 µM) 8.9% | viability, T/C (second compound 0.316 µM, first compound 0.00949 µM) 21.6% | viability, T/C (second compound 0.316 µM, first compound 0.03 µM) 13.4%
active: viability, T/C (second compound 0.0316 µM, first compound 0.949 µM) 4.81% | viability, T/C (second compound 0.0316 µM, first compound 3 µM) 2.71% | viability, T/C (second compound 0.1 µM, first compound 0.949 µM) 3.44% | viability, T/C (second compound 0.1 µM, first compound 3 µM) 1.05% | viability, T/C (second compound 0.316 µM, first compound 0.0949 µM) 11.1% | viability, T/C (second compound 0.316 µM, first compound 0.3 µM) 1.12% | viability, T/C (second compound 0.316 µM, first compound 0.949 µM) 0.14% | viability, T/C (second compound 0.316 µM, first compound 3 µM) 0.06% | viability, T/C (second compound 1 µM, first compound 0.00949 µM) 0.21% | viability, T/C (second compound 1 µM, first compound 0.03 µM) 0.17% | viability, T/C (second compound 1 µM, first compound 0.0949 µM) 0.15% | viability, T/C (second compound 1 µM, first compound 0.3 µM) 0.09% | viability, T/C (second compound 1 µM, first compound 0.949 µM) 0.08% | viability, T/C (second compound 1 µM, first compound 3 µM) 0.09% | viability, T/C (second compound 3.16 µM, first compound 0.00949 µM) 0.09% | viability, T/C (second compound 3.16 µM, first compound 0.03 µM) 0.13% | viability, T/C (second compound 3.16 µM, first compound 0.0949 µM) 0.16% | viability, T/C (second compound 3.16 µM, first compound 0.3 µM) 0.12% | viability, T/C (second compound 3.16 µM, first compound 0.949 µM) 0.12% | viability, T/C (second compound 3.16 µM, first compound 3 µM) 0.11% | viability, T/C (second compound 10 µM, first compound 0.00949 µM) 0.07% | viability, T/C (second compound 10 µM, first compound 0.03 µM) 0.12% | viability, T/C (second compound 10 µM, first compound 0.0949 µM) 0.23% | viability, T/C (second compound 10 µM, first compound 0.3 µM) 0.16% | viability, T/C (second compound 10 µM, first compound 0.949 µM) 0.18% | viability, T/C (second compound 10 µM, first compound 3 µM) 0.21%

Source: PubChem BioAssay AID2060621 (Molecular Pharmacology Branch, DTP, NCI, 2025)
